Tested on: Beagle/CSK strain dogs
Assay: Promoting action on bone formation: determination of bone area of femur
Assay type: in vivo, dog
Details: for bone area: dog femur, 4 weeks
Source text: Beagle/CSK strain dogs of 6-month old were used (n=3 to 6 per group). Into a physical saline solution, each (11 α, 15 α, 13E)-9-oxo-11,15-dihydroxy-16-(3-methoxymethylphenyl)-17,18,19,20-tetranor-5-t hiaprost-13-enoic acid methyl ester (methyl ester of a compound of the formula (IE)) α-cyclodextrin clathrate (containing rate of an active ingredient in α-cyclodextrin clathrate form is 25% w/w), (11 α, 15 α, 13E)-9-oxo-11,15-dihydroxy-16-(3-methoxymethylphenyl)-17,18,19,20-tetranor-3,7-dithiaprost-13-enoic acid (a compound of the formula (IF)), (9β, 11 α, 15 α, 5Z, 13E)-9-chloro-11,15-dihydroxy-16-(3-ethoxymethylphenyl)-17,18,19,20-tetranorpro st-5,13-dienoic acid (a compound of the formula (IG)), (11 α, 15 α, 13E)-9-oxo-11,15-dihydroxy-16-(3-methoxymethylphenyl)-17,18,19,20-tetranorpro st-13-enoic acid (methyl ester of a compound of the formula (IH)), and (11 α, 15 α, 5Z, 13E)-9-oxo-11,15-dihydroxy-16-(3-ethoxymethylphenyl)-17,18,19,20-tetranorprost-5,13-dienoic acid (a compound of the formula (IJ)) was dissolved, and administered continuously to each animal at the effective doses of 2, 5, 10 and 25 μg/kg/day, for 24 hours per day during 4 weeks. Each test solution was administered into femoral vein through holding-catheter at the rate of 0.2 ml/kg/hour. An equal volume of physical saline solution was administered into an animal of the control group. After termination of administration, each animal was sacrificed to carry out autopsy. The separated femur was fixed with 10% buffered formalin solution and then was cut into a round slice with the width of 10 mm vertically to longitudinal axis at the 25 mm central side from trochlea sulcus. Pictures of bone surface near side of epiphysis were taken with camera connected to the computer from the constant distance, and then the resulted digital image was analyzed to determine bone area.

[1] = 5 μg/kg/day continuous into femoral vein

Compound	bone area [1] [mm^2]	bone area (10 μg/kg/day continuous into femoral vein) [mm^2]	bone area (25 μg/kg/day continuous into femoral vein) [mm^2]	increase of bone area compared with Untreated Group (dog, 25 μg/kg/day) [fold]
COCc1cccc(C[C@H](O)/C=C/[C@H]2[C@H](O)CC(=O)[C@@H]2CCCCCCC(=O)O)c1 [Invention compound (IH), (11 α, 15 α, 13E)-9-oxo-11,15-dihydroxy-16-(3-methoxymethylphenyl)-17,18,19,20-tetranorpro st-13-enoic acid]	362.99 ± 89.56	–	–	–
COCc1cccc(C[C@H](O)/C=C/[C@H]2[C@H](O)CC(=O)[C@@H]2SCCCSCC(=O)O)c1 [Invention compound (IF), (11 α, 15 α, 13E)-9-oxo-11,15-dihydroxy-16-(3-methoxymethylphenyl)-17,18,19,20-tetranor-3,7-dithiaprost-13-enoic acid]	365.29 ± 73.63	–	–	–
CCOCc1cccc(C[C@H](O)/C=C/[C@H]2[C@H](O)CC(=O)[C@@H]2C/C=C\CCCC(=O)O)c1 [Invention compound (IJ), (11 α, 15 α, 5Z, 13E)-9-oxo-11,15-dihydroxy-16-(3-ethoxymethylphenyl)-17,18,19,20-tetranorprost-5,13-dienoic acid]	193.23 ± 11.32	–	–	–
CCOCc1cccc(C[C@H](O)/C=C/[C@@H]2[C@@H](C/C=C\CCCC(=O)O)[C@H](Cl)C[C@H]2O)c1 [Invention compound (IG), (9β, 11 α, 15 α, 5Z, 13E)-9-chloro-11,15-dihydroxy-16-(3-ethoxymethylphenyl)-17,18,19,20-tetranorpro st-5,13-dienoic acid]	–	140.10 ± 28.08	289.38 ± 120.50	4.2

— patent US6891062B2, “Pharmaceutical composition for treatment of diseases associated with decrease in bone mass” (Ono Pharmaceutical Co., Ltd., priority 1999, dated 2005)
